Data on 8 molecules can be found in patent US20120046353A1 (priority 2010, published 2012).

“Also recorded” adds a separate entry of the source. Where only a bound is given, the exact number is not on record here.

One assay relates to neuraminidase. Type of assay: biochemical.
Assay [1] deals with neuraminidase of novel influenza virus (Influenza A virus, UniProt C3W5S3). Format: biochemical, novel influenza (H1N1) virus.
The target of assay [2] is neuraminidase of avian influenza virus (H9N2) (Influenza A virus, UniProt A9LRT3). Kind of assay: biochemical. More on the design: species or system avian influenza virus A/chicken/Korea/01310/2001(H9N2).
For assay [3], the target named is neuraminidase of swine influenza virus (H1N1) (Influenza A virus, UniProt Q20F35). Type of assay: biochemical, swine influenza virus A/Sw/Kor/CAN1/04 (H1N1).
Where [4] appears, read: IC50 for neuraminidase of avian influenza virus (H9N2).

For the molecule `COc1c(C)c(O)c(C)c(O)c1C(=O)/C=C/c1ccccc1` [Compound 5, 2′,4′-dihydroxy-6′-methoxy-3′,5′-dimethylchalcone], the “Type of inhibition from Lineweaver Burk plots” value (from here on “Type of inhibition”) in the assay with neuraminidase is “non-competitive inhibitor”. For the same molecule, the “Inhibitory activity against neuraminidase of novel influenza virus, in words” value (“Inhibitory activity” for short) in assay [1] is on record as “excellent inhibitory activity”. Regarding `CCOC(=O)C1=C[C@@H](OC(CC)CC)[C@H](NC(C)=O)[C@@H](N)C1` [Tamiflu, oseltamivir phosphate, reference compound], the IC50 (as a rule, the concentration needed to halve the response being measured) in assay [2] (setting [4]) is 13.6 nM; in assay [2] (IC50 of Tamiflu against neuraminidase of avian influenza virus in combination with compound 4) it was 1.47 nM. Consider `COc1cc(O)c(C)c2c1C(=O)CC(c1ccccc1)O2` (centres unmarked) [Compound 11, 7-hydroxy-5-methoxy-8-methylflavanone], for which the half-maximal inhibitory concentration (IC50) in assay [2] (setting [4]) is over 528000 nM. As for `COc1c(C)c(O)c2c(c1C)OC(c1ccccc1)CC2=O` (centres unmarked) [Compound 6, 5-hydroxy-7-methoxy-6,8-dimethylflavanone], the IC50 in assay [2] (setting [4]) is over 503000 nM. In turn, `Cc1c(O)cc(O)c2c1OC(c1ccccc1)CC2=O` (centres unmarked) [Compound 12, 8-methylpinocembrin] gave an IC50 in assay [2] (setting [4]) of over 555000 nM.

With `COc1c(C)c(O)c(C)c(O)c1C(=O)/C=C/c1ccc(O)cc1` [Compound 4, 4,2′,4′-trihydroxy-6′-methoxy-3′,5′-dimethylchalcone], the “Type of inhibition” value in the assay on neuraminidase is “non-competitive inhibitor”. The “Inhibitory mechanism against neuraminidase of swine influenza virus” value in assay [3] is reported as “non-competitive inhibitor that reversibly inhibits; also recorded: noncompetitive inhibitor”. For the same molecule, the “Inhibitory activity” value in assay [1] was “excellent inhibitory activity”. As for `COc1cc(O)c(C)c(O)c1C(=O)/C=C/c1ccccc1` [Compound 8, 2′,4′-dihydroxy-3′-methyl-6′-methoxychalcone], the “Type of inhibition” value in the assay on neuraminidase is “non-competitive inhibitor”. Moreover, the “Inhibitory activity” value in assay [1] is on record as “excellent inhibitory activity”. For the molecule `COc1c(C)c(O)c(C)c(O)c1C(=O)/C=C/c1ccccc1O` [Compound 14, 2,2′,4′-trihydroxy-6′-methoxy-3′,5′-dimethylchalcone], the “Type of inhibition” value in the assay with neuraminidase was “non-competitive inhibitor”. Also, in assay [1], the “Inhibitory activity” value is “excellent inhibitory activity”.
